Data: patent US9526717B2, “Composition for treating immune diseases containing daurinol compound as active ingredient” (THE CATHOLIC UNIVERSITY OF KOREA INDUSTRY-ACADEMIC …, priority 2013, dated 2016)

Legend:
[1] = test system: splenocyte cell line; assay: IL-17 secretion of anti-CD3 treated splenocyte cell line (sandwich ELISA); type: cell-based; details: anti-CD3 antibodies 0.5 μg/mL
Protocol: For this purpose, a splenocyte cell line was treated with anti-CD3 antibodies (0.5 μg/mL) to induce the secretion of IL-17, or treated with LPS (100 ng/mL) to induce the secretion of TNF-α. […] The resultant was reacted in a 96-well plate with monoclonal anti-IL-17 or anti-TNF-α (2 μg/mL) at 4° C. overnight, and upon reaction, the non-specific binding was blocked using a blocking solution (1% BSA/PBST). IL-17 recombinant or TNF-α in a half amount was continuously diluted and used as standards, and the supernatant of cell culture was reacted at room temperature for 2 hours. Then, the biotinylated anti-IL-17 was reacted at room temperature for 2 hours, washed 4 times, and added with ExtraAvidin-alkaline phosphatase conjugate after dilution, and reacted at room temperature for 2 hours. Subsequently, PNPP/DEA solution was added thereto to fix color and absorbance was measured at 405 nm.

[2] = test system: mouse model with collagen induced arthritis (CIA); assay: Measurement of IgG, IgG1 and IgG2a in the serum of CIA mice by sandwich ELISA; type: in vivo
[3] = test system: splenocytes of an animal model with lupus; assay: Th17/Treg activity by flow cytometry in splenocytes of animal model with lupus; type: cell-based; details: daurinol 1 μM, anti-CD3 0.5 μg/mL, three days
Protocol: Finally, for the confirmation of the controlling the activity of Th17/Treg cells, the splenocytes of an animal model with lupus were culture for three days after treating with daurinol (1 μM) and anti-CD3 (0.5 μg/mL), and the activity of Th17/Treg cells being controlled by daurinol was evaluated by flow cytometry.

[4] = test system: animal model with inflammatory bowel disease (IBD); assay: H&E staining and TNF-α expression of large intestine tissues in IBD animal model; type: in vivo, mouse; details: DSS-induced IBD mice, daurinol treated
Description: For the confirmation of the effect of the daurinol compound of the present invention on the treatment of inflammatory bowel disease, the present inventors first constructed an animal model with induced inflammatory bowel disease. For the experimental model, C57BL/6(H-2kb) mice were used. For the construction of an animal model with induced inflammatory bowel disease, the mice were fed with 3.5% dextran sulfate sodium (DSS) and water for a week, thereby preparing an animal model with induced inflammatory bowel disease. The present inventors divided the experimental animals into a normal control group, a group of an animal model with induced inflammatory bowel disease, and a group of an animal model with induced inflammatory bowel disease treated with daurinol or a TNF-α inhibitor, and the group treated with daurinol was administered orally and intrarectally with daurinol (20 mg/kg) from the 4th day after the induction with the disease. Additionally, for the confirmation of the histological findings of the tissues in the large intestine and the expression of inflammatory cytokines, a hematoxylin and eosin (H&E) staining was performed to examine whether the damage of the tissues in the large intestine was reduced by the daurinol treatment.

[5] = test system: animal model with collagen induced arthritis (CIA); assay: Expression of inflammatory cytokines in joints of CIA animals (tissue staining); type: in vivo, mouse; details: injected intravenously, three weeks after
[6] = test system: CD4+ T cells; assay: IL-17 expression in allogenic reaction in vitro; type: cell-based, mouse; details: daurinol 0.5, 2, 10 and 20 μM
Protocol: For the confirmation of the effect of the daurinol compound on the inhibition of T cell proliferation and the expression amount of IL-17, the CD4+ T cells (2×10^5 cells) of a normal recipient (Balb/c, responder), and the T cell-removed splenocytes (2×10^5 cells) derived from a recipient (homogenic) or the splenocytes (2×10^5 cells) derived from a donor (C57BL/6, stimulator, allogenic) exposed to irradiation were added to each well of a 96-well round bottom plate, mixed, and cultured in vitro. In particular, the T cell proliferation and the secretion of IL-17 when an allogenic reaction was untreated with daurinol or treated with daurinol at 0.5 μM, 2 μM, 10 μM, and 20 μM, respectively, were observed.

[7] = test system: splenocytes of an animal model with lupus; assay: IgG antibody formation in splenocytes of animal model with lupus (ELISA); type: cell-based; details: daurinol 1 μM and 5 μM, LPS 100 ng/mL, three days
Protocol: First, regarding the effect of controlling the autoantibody formation, the splenocytes of an animal model with lupus were treated with daurinol (1 μM and 5 μM) and LPS (100 ng/mL) for three days and the levels of IgG antibodies expressed thereof were evaluated by ELISA assay.

[8] = test system: bone marrow macrophages (BMM); assay: Inhibitory effect on the differentiation of osteoclasts (TRAP+ multinucleate cells); type: cell-based, mouse; details: RANKL 50 ng/mL, M-CSF 30 ng/mL, 4 days
Description: ICR mice (6 to 9 week-old male) were subjected to cervical dislocation and disinfected with 70% ethanol. The skin in the tibia area was cut off and the muscles attached thereto were detached. The distal center of tibia was cut off and tibia was ablated by dislocating patella. Both ends of the bone were slightly cut off and a 25G injection needle was indwelled therein on one end and α-MEM was flowed thereon and bone marrow cells were thereby collected into a test tube. After centrifugation, the resultant was suspended in α-MEM and red blood cells were removed by adding two volumes of Gey's solution. After centrifugation, the resultant was resuspended in α-MEM including 10% FBS and cultured to be used.
The cultured bone marrow cells were cultured overnight with macrophage colony stimulating factor (“M-CSF”, hereinafter) (10 ng/mL), and the suspension cells were cultured further with M-CSF (30 ng/mL) for 3 days, and thereby bone marrow macrophages (“BMM”) were formed. The thus-formed BMM was collected and cultured in 1×10^5 cells/well in the presence of receptor activator of NF-κB ligand (RANKL) (50 ng/mL), which is an osteoclast differentiation factor, and M-CSF (30 ng/mL) for 4 days. […] The resultant was observed under a microscope and TRAP+ cells having three or more nuclei were determined as multinucleate osteoclasts.

[9] = test system: VEGF; assay: VEGF expression in the intestinal tissues of IBD mouse model; type: in vivo; details: animal (mouse) model with inflammatory bowel disease
Description: For the confirmation of the effect of the daurinol compound of the present invention on the treatment of inflammatory bowel disease, the present inventors first constructed an animal model with induced inflammatory bowel disease. For the experimental model, C57BL/6(H-2kb) mice were used. For the construction of an animal model with induced inflammatory bowel disease, the mice were fed with 3.5% dextran sulfate sodium (DSS) and water for a week, thereby preparing an animal model with induced inflammatory bowel disease.
The present inventors divided the experimental animals into a normal control group, a group of an animal model with induced inflammatory bowel disease, and a group of an animal model with induced inflammatory bowel disease treated with daurinol or a TNF-α inhibitor, and the group treated with daurinol was administered orally and intrarectally with daurinol (20 mg/kg) from the 4th day after the induction with the disease.

[10] = arthritis animals, daurinol administration

COc1cc2c(-c3ccc4c(c3)OCO4)c3c(cc2cc1O)COC3=O [daurinol]
secretion of IL-17 decreased to ([1]; 2 μM daurinol): 50%
secretion of IL-17 ([1]; 20 μM daurinol): no secretion was observed
expression of IgG in the serum ([2]; CIA mouse, three weeks after daurinol injection, 20 mg/kg i.v.): effectively reduced
IgG1 in the serum [2, 10]: significant decrease
IgG2a in the serum [2, 10]: significant decrease
Th17 activity (flow cytometry) [3]: inhibit the Th17 activity
activity of Foxp3+ Treg cells (flow cytometry) [3]: induce the activity of Foxp3+ Treg cells
damage of the tissues in the large intestine (H&E staining) [4]: decrease in the intestinal tissue damage
expression of TNF-α in large intestine tissues [4]: significantly inhibits
expression level of IL-1beta in joints [5]: significantly reduced
expression level of IL-6 in joints [5]: significantly reduced
expression level of IL-17 in joints [5]: significantly reduced
expression level of TNF-α in joints [5]: significantly reduced
expression of IL-17 [6]: inhibited the expression of IL-17
formation of IgG antibodies (ELISA) [7]: inhibited the formation of IgG antibodies in a dose-dependent manner
differentiation of osteoclasts reduced by (number of TRAP+ multinucleate cells) ([8]; daurinol 2 μM): ≥ 60%
differentiation of osteoclasts (number of TRAP+ multinucleate cells) ([8]; daurinol 10 μM): no differentiation of osteoclasts was observed
VEGF expression in the intestinal tissues [9]: significantly inhibited the VEGF expression
